Data as given in ChEMBL document CHEMBL1201862, “PubChem BioAssay data set” (2004).
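Five compound concentrations were applied to cells in 96-well plates for 48 hours; endpoints were derived by simple linear interpolation of the resulting dose-response curve. Abbreviation: GI50, concentration required for 50% inhibition of growth.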 Activity calls are given as the source filed them. No stated cut-off is given here; in the data, active = GI50 up to about 1.1 µM and inactive = higher.

Columns and labels:
Test in all cases: growth of human tumour cells (NCI), 48 h
786-0 = tested on: 786-0
A498 = tested on: A498
A549 = tested on: A549
ACHN = tested on: ACHN
BT-549 = tested on: BT-549
CCRF-CEM = tested on: CCRF-CEM
COLO 205 = tested on: COLO 205
DU-145 = tested on: DU-145
EKVX = tested on: EKVX
HCC 2998 = tested on: HCC 2998
HCT-116 = tested on: HCT-116
HCT-15 = tested on: HCT-15
HL-60 = tested on: HL-60
HOP-62 = tested on: HOP-62
HOP-92 = tested on: HOP-92
HT-29 = tested on: HT-29
Hs-578T = tested on: Hs-578T
K562 = tested on: K562
LOX IMVI = tested on: LOX IMVI
M14 = tested on: M14
MCF7 = tested on: MCF7
MDA-MB-231 = tested on: MDA-MB-231
MDA-MB-435 = tested on: MDA-MB-435
MDA-N = tested on: MDA-N
MOLT-4 = tested on: MOLT-4
NCI-H226 = tested on: NCI-H226
NCI-H23 = tested on: NCI-H23
NCI-H460 = tested on: NCI-H460
NCI-H522 = tested on: NCI-H522
NCI/ADR-RES = tested on: NCI/ADR-RES
OVCAR-3 = tested on: OVCAR-3
OVCAR-5 = tested on: OVCAR-5
OVCAR-8 = tested on: OVCAR-8
PC-3 = tested on: PC-3
RPMI-8226 = tested on: RPMI-8226
SF-268 = tested on: SF-268
SF-295 = tested on: SF-295
SF-539 = tested on: SF-539
SK-MEL-28 = tested on: SK-MEL-28
SK-MEL-2 = tested on: SK-MEL-2
SN12C = tested on: SN12C
SNB-19 = tested on: SNB-19
SNB-75 = tested on: SNB-75
SR = tested on: SR
SW-620 = tested on: SW-620
T47D = tested on: T47D
TK-10 = tested on: TK-10
U-251 = tested on: U-251
UACC-257 = tested on: UACC-257
UO-31 = tested on: UO-31
CAKI-1 = tested on: CAKI-1
IGROV-1 = tested on: IGROV-1
KM12 = tested on: KM12
Malme-3M = tested on: Malme-3M
OVCAR-4 = tested on: OVCAR-4
RXF 393 = tested on: RXF 393
SK-MEL-5 = tested on: SK-MEL-5
SK-OV-3 = tested on: SK-OV-3
UACC-62 = tested on: UACC-62

For CCOP(=O)(OCC)/C(C#N)=C/c1ccc(-c2cc(C(F)(F)F)cc(C(F)(F)F)c2)o1, the GI50 (786-0) was 12.2 µM (inactive), the GI50 (A498) was 12.4 µM (inactive) and the GI50 (A549) was 14.4 µM (inactive). The GI50 (ACHN) was 12.7 µM (inactive), the GI50 (BT-549) was 25.7 µM (inactive) and the GI50 (CCRF-CEM) was 9.75 µM (inactive). For the same compound, the GI50 (COLO 205) was 12.4 µM (inactive), the GI50 (DU-145) was 14.6 µM (inactive) and the GI50 (EKVX) was 20.7 µM (inactive). The GI50 (HCC 2998) was 8.45 µM (inactive), the GI50 (HCT-116) was 13.2 µM (inactive) and the GI50 (HCT-15) was 6.38 µM. For the same compound, the GI50 (HL-60) was 3.4 µM (inactive), the GI50 (HOP-62) was 14.5 µM (inactive) and the GI50 (HOP-92) was 8.41 µM (inactive). For the same compound, the GI50 (HT-29) was 6.55 µM (inactive), the GI50 (Hs-578T) was 25.1 µM (inactive) and the GI50 (K562) was 3.3 µM (inactive). For the same compound, the GI50 (LOX IMVI) was 3.34 µM (inactive), the GI50 (M14) was 10.2 µM (inactive) and the GI50 (MCF7) was 6.3 µM (inactive). For the same compound, the GI50 (MDA-MB-231) was 13.7 µM (inactive), the GI50 (MDA-MB-435) was 14 µM (inactive) and the GI50 (MDA-N) was 13.3 µM (inactive). The GI50 (MOLT-4) was 3.71 µM (inactive), the GI50 (NCI-H226) was 14.8 µM (inactive) and the GI50 (NCI-H23) was 13 µM (inactive). The GI50 (NCI-H460) was 6.38 µM (inactive), the GI50 (NCI-H522) was 10.4 µM (inactive) and the GI50 (NCI/ADR-RES) was 9.82 µM (inactive). For the same compound, the GI50 (OVCAR-3) was 8.02 µM (inactive), the GI50 (OVCAR-5) was 13.3 µM (inactive) and the GI50 (OVCAR-8) was 16.2 µM (inactive). For the same compound, the GI50 (PC-3) was 11.7 µM (inactive), the GI50 (RPMI-8226) was 3.59 µM (inactive) and the GI50 (SF-268) was 15.2 µM (inactive). For the same compound, the GI50 (SF-295) was 1.82 µM (inactive), the GI50 (SF-539) was 14.9 µM (inactive) and the GI50 (SK-MEL-28) was 16.9 µM (inactive). The GI50 (SK-MEL-2) was 20.3 µM (inactive), the GI50 (SN12C) was 15.1 µM (inactive) and the GI50 (SNB-19) was 16 µM (inactive). For the same compound, the GI50 (SNB-75) was 10.5 µM (inactive), the GI50 (SR) was 7.43 µM (inactive) and the GI50 (SW-620) was 14.9 µM (inactive). For the same compound, the GI50 (T47D) was 11.9 µM (inactive), the GI50 (TK-10) was 16.4 µM (inactive) and the GI50 (U-251) was 12 µM (inactive). The GI50 (UACC-257) was 16.3 µM (inactive) and the GI50 (UO-31) was 16.8 µM (inactive).
For N#CC1(C#N)NC(c2ccccc2)C(C#N)(C#N)NC1c1ccccc1 (stereo not drawn), the GI50 (786-0) was > 100 µM (inactive), the GI50 (A498) was > 100 µM (inactive) and the GI50 (A549) was > 100 µM (inactive). The GI50 (ACHN) was > 100 µM (inactive), the GI50 (BT-549) was > 100 µM (inactive) and the GI50 (CAKI-1) was 6.59 µM (inactive). For the same compound, the GI50 (CCRF-CEM) was > 100 µM (inactive), the GI50 (COLO 205) was > 100 µM (inactive) and the GI50 (DU-145) was > 100 µM (inactive). The GI50 (EKVX) was > 100 µM (inactive), the GI50 (HCC 2998) was > 100 µM (inactive) and the GI50 (HCT-116) was > 100 µM (inactive). For the same compound, the GI50 (HCT-15) was greater than 100 µM, the GI50 (HL-60) was 41.1 µM (inactive) and the GI50 (HOP-62) was > 100 µM (inactive). For the same compound, the GI50 (HOP-92) was 86.7 µM (inactive), the GI50 (HT-29) was > 100 µM (inactive) and the GI50 (Hs-578T) was > 100 µM (inactive). The GI50 (IGROV-1) was > 100 µM (inactive), the GI50 (K562) was > 100 µM (inactive) and the GI50 (KM12) was > 100 µM (inactive). For the same compound, the GI50 (LOX IMVI) was > 100 µM (inactive), the GI50 (M14) was > 100 µM (inactive) and the GI50 (MCF7) was > 100 µM (inactive). For the same compound, the GI50 (MDA-MB-231) was 25.9 µM (inactive), the GI50 (MDA-MB-435) was > 100 µM (inactive) and the GI50 (MDA-N) was > 100 µM (inactive). The GI50 (MOLT-4) was > 100 µM (inactive), the GI50 (Malme-3M) was > 100 µM (inactive) and the GI50 (NCI-H226) was > 100 µM (inactive). The GI50 (NCI-H23) was > 100 µM (inactive), the GI50 (NCI-H460) was > 100 µM (inactive) and the GI50 (NCI-H522) was 27.4 µM (inactive). For the same compound, the GI50 (NCI/ADR-RES) was > 100 µM (inactive), the GI50 (OVCAR-3) was > 100 µM (inactive) and the GI50 (OVCAR-4) was > 100 µM (inactive). For the same compound, the GI50 (OVCAR-5) was > 100 µM (inactive), the GI50 (OVCAR-8) was > 100 µM (inactive) and the GI50 (PC-3) was > 100 µM (inactive). For the same compound, the GI50 (RPMI-8226) was > 100 µM (inactive), the GI50 (RXF 393) was > 100 µM (inactive) and the GI50 (SF-268) was > 100 µM (inactive). The GI50 (SF-295) was > 100 µM (inactive), the GI50 (SF-539) was > 100 µM (inactive) and the GI50 (SK-MEL-28) was > 100 µM (inactive). The GI50 (SK-MEL-2) was > 100 µM (inactive), the GI50 (SK-MEL-5) was > 100 µM (inactive) and the GI50 (SK-OV-3) was > 100 µM (inactive). For the same compound, the GI50 (SN12C) was > 100 µM (inactive), the GI50 (SNB-19) was > 100 µM (inactive) and the GI50 (SNB-75) was > 100 µM (inactive). The GI50 (SW-620) was > 100 µM (inactive), the GI50 (T47D) was > 100 µM (inactive) and the GI50 (TK-10) was > 100 µM (inactive). The GI50 (U-251) was > 100 µM (inactive), the GI50 (UACC-257) was > 100 µM (inactive) and the GI50 (UACC-62) was > 100 µM (inactive). The GI50 (UO-31) was > 100 µM (inactive).
